From ChEMBL document CHEMBL5696442, “Discovery of type II inhibitors of TGFβ-activated kinase 1 (TAK1) and mitogen-activated protein kinase kinase kinase kinase 2 (MAP4K2)” (J Med Chem, 2015) come the findings set out here.

Calls of active or inactive are those of the source. The calls are words filed in the database; no cut-off is given here.

Test [1] addresses Serine/threonine-protein kinase PLK1 (Homo sapiens) (UniProt P53350). Description: Inhibition of PLK1 Lys2 labeling site harbouring DLKLGNLFLNEDLEVK in human Huh-7 cell lysate at 1 uM by KiNativ Profiling analysis relative to control. The class given is subcellular.
In test [2] the target is T1, Phosphatidylinositol 5-phosphate 4-kinase type-2 gamma (Homo sapiens) (UniProt Q8TBX8).
T1 sequence (whole entry): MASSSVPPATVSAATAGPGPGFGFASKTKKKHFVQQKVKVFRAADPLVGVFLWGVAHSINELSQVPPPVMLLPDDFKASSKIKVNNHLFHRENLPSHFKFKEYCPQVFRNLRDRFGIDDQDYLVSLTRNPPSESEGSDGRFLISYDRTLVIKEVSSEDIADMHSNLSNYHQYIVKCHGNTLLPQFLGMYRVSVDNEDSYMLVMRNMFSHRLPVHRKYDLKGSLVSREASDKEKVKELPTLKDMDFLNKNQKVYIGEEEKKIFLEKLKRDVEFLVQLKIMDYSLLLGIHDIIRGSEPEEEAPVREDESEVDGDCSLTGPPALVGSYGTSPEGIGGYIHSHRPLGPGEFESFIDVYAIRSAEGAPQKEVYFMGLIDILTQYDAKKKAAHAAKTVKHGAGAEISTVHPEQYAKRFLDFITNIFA
Description: Inhibition of PIP4K2C ATP labeling site harbouring VKELPTLKDMDFLNK in human Huh-7 cell lysate at 1 uM by KiNativ Profiling analysis relative to control. The class given is subcellular.

Test [3] addresses Cyclin-dependent kinase 1 (Homo sapiens) (UniProt P06493). Briefly: Inhibition of CDC2 Lys2 labeling site harbouring DLKPQNLLIDDKGTIK in human A-375 cells at 0.05 uM by KiNativ Profiling analysis relative to control. The class given is cell-based.
The target in test [4] is Cyclin-dependent kinase-like 1 (Homo sapiens) (UniProt Q00532). Description: Inhibition of CDKL1 (unknown origin) at 1 uM by Ambit Kinomescan binding assay relative to control; values are per cent of control.
Chain of Cyclin-dependent kinase-like 1 (Homo sapiens) (Q00532 whole entry): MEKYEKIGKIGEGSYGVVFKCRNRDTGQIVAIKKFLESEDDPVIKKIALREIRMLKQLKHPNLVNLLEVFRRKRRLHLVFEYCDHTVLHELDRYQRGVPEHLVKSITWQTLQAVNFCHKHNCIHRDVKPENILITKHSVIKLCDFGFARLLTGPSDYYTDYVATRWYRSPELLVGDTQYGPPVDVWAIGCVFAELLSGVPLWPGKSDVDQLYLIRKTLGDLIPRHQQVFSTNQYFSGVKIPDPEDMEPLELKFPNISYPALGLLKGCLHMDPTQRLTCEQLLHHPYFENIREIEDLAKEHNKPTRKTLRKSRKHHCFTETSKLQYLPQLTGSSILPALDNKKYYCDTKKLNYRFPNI
The target in test [5] is Phosphatidylinositol 4-kinase beta (Homo sapiens) (UniProt Q9UBF8). Description: Inhibition of PI4KB ATP labeling site harbouring VPHTQAVVLNSKDK in human A-375 cells at 0.05 uM by KiNativ Profiling analysis relative to control. The class given is cell-based.
Chain of Phosphatidylinositol 4-kinase beta (Homo sapiens) (Q9UBF8 2-816 limits assumed): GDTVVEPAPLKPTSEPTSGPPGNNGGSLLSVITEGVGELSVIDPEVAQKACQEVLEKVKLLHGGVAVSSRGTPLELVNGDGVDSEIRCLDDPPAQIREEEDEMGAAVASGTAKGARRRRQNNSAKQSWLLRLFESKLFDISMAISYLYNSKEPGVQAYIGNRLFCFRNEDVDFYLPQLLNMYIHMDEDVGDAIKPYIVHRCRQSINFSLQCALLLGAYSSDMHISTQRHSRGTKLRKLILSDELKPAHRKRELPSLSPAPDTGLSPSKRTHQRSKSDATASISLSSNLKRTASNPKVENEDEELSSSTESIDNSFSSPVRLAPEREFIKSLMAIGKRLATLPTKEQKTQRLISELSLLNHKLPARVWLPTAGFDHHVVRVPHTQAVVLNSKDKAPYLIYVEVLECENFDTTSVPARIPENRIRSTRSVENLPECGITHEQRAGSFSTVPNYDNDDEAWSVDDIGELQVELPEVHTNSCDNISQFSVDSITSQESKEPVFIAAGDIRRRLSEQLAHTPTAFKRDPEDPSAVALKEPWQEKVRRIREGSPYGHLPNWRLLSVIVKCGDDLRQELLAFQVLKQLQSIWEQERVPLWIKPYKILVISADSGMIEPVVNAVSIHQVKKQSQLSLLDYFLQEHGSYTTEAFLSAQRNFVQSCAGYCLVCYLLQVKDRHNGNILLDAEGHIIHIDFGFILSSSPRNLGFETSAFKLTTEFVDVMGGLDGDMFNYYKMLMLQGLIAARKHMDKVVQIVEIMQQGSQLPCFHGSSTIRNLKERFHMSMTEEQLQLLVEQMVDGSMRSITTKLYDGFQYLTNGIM
Test [6] addresses Atypical kinase COQ8B, mitochondrial (Homo sapiens) (UniProt Q96D53). Briefly: Inhibition of ADCK4 (unknown origin) at 10 uM by Ambit Kinomescan binding assay.
Test [7] addresses Serine/threonine-protein kinase 25 (Homo sapiens) (UniProt O00506). Description: Inhibition of YSK1 (unknown origin) at 10 uM by Ambit Kinomescan binding assay.
Test [8] has as its target NT-3 growth factor receptor (Homo sapiens) (UniProt Q16288). Description: Inhibition of TRKC (unknown origin) at 10 uM by Ambit Kinomescan binding assay relative to control; values are per cent of control.
Test [9] has as its target T2, Serine/threonine-protein kinase LATS1 (Homo sapiens) (UniProt O95835).
T2 sequence (whole entry): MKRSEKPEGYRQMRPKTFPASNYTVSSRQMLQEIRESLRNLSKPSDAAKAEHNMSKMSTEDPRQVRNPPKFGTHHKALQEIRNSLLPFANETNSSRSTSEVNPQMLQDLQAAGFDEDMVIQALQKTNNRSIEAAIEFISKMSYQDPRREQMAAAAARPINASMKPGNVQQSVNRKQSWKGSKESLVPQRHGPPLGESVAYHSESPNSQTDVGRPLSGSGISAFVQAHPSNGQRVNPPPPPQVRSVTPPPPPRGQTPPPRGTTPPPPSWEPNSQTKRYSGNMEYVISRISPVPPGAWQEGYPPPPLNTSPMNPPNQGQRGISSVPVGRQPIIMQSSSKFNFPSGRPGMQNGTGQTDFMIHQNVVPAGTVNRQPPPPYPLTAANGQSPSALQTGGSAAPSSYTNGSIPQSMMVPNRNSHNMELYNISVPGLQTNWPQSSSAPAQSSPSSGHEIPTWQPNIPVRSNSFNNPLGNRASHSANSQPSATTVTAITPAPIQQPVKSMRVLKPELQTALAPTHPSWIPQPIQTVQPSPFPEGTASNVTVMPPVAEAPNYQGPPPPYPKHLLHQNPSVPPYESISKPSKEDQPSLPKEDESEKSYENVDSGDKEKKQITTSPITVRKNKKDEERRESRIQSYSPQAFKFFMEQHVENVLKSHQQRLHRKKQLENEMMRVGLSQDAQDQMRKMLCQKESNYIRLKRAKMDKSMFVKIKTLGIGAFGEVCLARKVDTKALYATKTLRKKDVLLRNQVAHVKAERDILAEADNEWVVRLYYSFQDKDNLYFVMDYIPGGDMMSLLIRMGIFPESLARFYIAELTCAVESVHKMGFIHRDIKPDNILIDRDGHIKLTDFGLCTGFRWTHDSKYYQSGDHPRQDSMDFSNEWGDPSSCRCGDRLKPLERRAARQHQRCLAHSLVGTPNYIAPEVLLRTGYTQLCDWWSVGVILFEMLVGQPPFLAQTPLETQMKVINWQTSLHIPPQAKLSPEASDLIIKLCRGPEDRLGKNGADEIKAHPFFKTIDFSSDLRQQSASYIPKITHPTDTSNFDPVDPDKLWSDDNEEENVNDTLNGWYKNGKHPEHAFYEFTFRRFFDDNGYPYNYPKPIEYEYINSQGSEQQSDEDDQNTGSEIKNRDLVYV
Description: Inhibition of LATS1 (unknown origin) at 10 uM by Ambit Kinomescan binding assay.

Chain of NT-3 growth factor receptor (Homo sapiens) (Q16288 32-839 limits assumed): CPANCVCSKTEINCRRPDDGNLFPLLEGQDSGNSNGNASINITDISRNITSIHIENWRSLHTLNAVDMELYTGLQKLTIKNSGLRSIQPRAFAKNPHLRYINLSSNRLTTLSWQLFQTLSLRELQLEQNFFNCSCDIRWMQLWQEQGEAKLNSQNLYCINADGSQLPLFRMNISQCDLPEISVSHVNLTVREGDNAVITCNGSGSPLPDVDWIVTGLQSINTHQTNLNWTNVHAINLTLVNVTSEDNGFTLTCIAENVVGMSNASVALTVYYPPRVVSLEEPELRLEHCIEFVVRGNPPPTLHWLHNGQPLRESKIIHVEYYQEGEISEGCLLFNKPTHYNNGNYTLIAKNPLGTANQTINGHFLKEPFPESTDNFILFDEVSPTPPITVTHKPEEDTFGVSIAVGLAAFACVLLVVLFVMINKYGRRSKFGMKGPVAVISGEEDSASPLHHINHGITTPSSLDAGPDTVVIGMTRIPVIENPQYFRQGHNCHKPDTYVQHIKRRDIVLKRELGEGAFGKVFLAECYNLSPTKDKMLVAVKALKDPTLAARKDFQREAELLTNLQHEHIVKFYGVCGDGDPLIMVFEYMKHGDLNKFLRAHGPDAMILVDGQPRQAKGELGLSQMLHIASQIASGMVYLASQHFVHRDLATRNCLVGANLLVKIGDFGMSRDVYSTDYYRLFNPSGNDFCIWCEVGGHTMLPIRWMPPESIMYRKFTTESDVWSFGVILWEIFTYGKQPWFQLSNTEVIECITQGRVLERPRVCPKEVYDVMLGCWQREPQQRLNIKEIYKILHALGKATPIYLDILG
Chain of Atypical kinase COQ8B, mitochondrial (Homo sapiens) (Q96D53 whole entry): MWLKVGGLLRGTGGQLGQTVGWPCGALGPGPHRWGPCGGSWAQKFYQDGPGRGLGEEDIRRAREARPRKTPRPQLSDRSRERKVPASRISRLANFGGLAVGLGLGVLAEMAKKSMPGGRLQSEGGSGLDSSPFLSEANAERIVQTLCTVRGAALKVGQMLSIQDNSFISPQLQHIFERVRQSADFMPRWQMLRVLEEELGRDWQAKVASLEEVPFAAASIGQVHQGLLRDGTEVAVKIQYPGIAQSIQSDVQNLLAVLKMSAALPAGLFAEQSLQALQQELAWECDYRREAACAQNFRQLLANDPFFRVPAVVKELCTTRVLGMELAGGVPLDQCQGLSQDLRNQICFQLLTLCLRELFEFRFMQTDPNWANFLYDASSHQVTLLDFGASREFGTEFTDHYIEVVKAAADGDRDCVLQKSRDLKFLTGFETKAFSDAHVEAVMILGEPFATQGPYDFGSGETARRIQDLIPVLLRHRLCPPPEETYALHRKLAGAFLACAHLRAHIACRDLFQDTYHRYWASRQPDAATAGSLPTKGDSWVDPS
Chain of Cyclin-dependent kinase 1 (Homo sapiens) (P06493 whole entry, looked up): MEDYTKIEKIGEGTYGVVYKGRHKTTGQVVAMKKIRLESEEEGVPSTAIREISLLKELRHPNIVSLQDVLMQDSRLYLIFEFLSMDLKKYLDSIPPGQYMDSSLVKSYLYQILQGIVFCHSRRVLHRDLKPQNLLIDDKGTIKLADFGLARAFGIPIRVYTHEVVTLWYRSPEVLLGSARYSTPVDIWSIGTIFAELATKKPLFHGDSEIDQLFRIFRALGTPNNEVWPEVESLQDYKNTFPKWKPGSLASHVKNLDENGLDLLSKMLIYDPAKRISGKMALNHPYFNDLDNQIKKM
Chain of Serine/threonine-protein kinase 25 (Homo sapiens) (O00506 whole entry, looked up): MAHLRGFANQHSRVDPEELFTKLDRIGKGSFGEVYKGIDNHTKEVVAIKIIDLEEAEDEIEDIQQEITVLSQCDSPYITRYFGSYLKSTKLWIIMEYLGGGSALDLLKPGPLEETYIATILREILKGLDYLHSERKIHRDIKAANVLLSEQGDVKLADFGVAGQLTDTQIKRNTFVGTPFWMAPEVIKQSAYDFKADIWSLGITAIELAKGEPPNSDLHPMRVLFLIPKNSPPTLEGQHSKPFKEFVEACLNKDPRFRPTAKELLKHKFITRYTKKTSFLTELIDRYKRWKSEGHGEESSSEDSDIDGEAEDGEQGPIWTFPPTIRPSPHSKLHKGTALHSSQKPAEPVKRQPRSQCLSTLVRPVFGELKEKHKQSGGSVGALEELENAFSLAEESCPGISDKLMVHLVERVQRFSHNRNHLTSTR
Chain of Serine/threonine-protein kinase PLK1 (Homo sapiens) (P53350 whole entry): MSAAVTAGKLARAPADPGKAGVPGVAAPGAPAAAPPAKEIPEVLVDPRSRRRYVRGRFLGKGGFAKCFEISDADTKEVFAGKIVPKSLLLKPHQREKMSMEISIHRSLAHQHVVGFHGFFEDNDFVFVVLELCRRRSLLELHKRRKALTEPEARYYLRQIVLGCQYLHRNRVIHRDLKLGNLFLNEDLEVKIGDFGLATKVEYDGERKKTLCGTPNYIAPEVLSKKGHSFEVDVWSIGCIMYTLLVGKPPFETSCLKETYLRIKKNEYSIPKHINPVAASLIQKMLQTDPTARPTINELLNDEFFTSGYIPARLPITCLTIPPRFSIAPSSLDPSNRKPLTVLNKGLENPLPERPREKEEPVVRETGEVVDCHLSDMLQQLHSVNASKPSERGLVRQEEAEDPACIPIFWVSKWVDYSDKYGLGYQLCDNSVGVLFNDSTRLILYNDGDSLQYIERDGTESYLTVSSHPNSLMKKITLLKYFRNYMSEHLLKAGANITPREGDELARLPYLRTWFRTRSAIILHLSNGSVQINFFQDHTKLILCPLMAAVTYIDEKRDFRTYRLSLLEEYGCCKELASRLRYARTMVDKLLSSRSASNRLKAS

Take `CNc1cc(Oc2cc(C(=O)Nc3cc(N4CCN(C)CC4)cc(C(F)(F)F)c3)ccc2C)ncn1`: the inhibition in test [1] was -8.3%; in [2], 11.6%.

`CCN1CCN(Cc2ccc(NC(=O)c3ccc(C)c(/C=C/c4cnc5[nH]ccc5c4OC)c3)cc2C(F)(F)F)CC1`: the inhibition is 2.1% in test [3] and -10% in test [5]. Further, the residual activity in test [4] amounted to 100%.

`CCN1CCN(Cc2ccc(NC(=O)c3ccc(C)c(Oc4ccnc5[nH]ccc45)c3)cc2C(F)(F)F)CC1`: the inhibition result in test [6], in [7] and in [9] was “inactive” throughout. In [8], this compound yielded a residual activity of 3.8%.

For orientation: inhibition means the change of the read-out against control, counted positive when it falls. Broadly, the residual activity is the signal under treatment as a percentage of the control signal. Low values mean little activity left, high ones much activity left.
